Assay [1] deals with T1, PPARα (Homo sapiens, UniProt Q07869).
T1 construct: expressed in transfected cells; host or cells: COS-7 cells
T1 sequence (Q07869 239-466 limits assumed): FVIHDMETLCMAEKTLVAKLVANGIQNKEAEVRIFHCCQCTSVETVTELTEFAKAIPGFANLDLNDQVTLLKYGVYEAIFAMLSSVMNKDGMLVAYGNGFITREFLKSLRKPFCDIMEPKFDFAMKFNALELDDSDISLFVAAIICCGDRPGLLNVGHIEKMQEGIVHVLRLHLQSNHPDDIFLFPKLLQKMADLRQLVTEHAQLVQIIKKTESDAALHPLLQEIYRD
The assay is described as follows: PPARα/Gal4 transactivation system in COS-7 cells. Format: cell-based. The following applies: 24 hours. As for the experimental part:
(§1) COS-7 cells were incubated with different concentrations of the inventive compounds for 24 hours. The results are expressed as the induction factor (ratio of luminescent signal obtained with the compound and that observed without the compound) after the different treatments.
(§2) PPAR activation was tested in vitro in RK13 epitheloid or COS-7 cell lines by measuring the transcriptional activity of chimeras composed of the DNA binding domain of the yeast gal4 transcription factor and the ligand binding domain of the different PPARs. These latter results were then confirmed in cell lines according to the following protocols:
(§3) RK13 cells were from ECACC (Porton Down, UK), COS-7 cells were from the ATCC (American Type Culture Collection) and were grown in DMEM medium supplemented with 10% (VN) fetal calf serum, 100 U/ml penicillin (Gibco, Paisley, UK) and 2 mM L-glutamine (Gibco, Paisley, UK). The culture medium was changed every two days. Cells were kept at 37° C. in a humidified 95% air/5% CO2 atmosphere.
(§4) The plasmids pG5TkpGL3, pRL-CMV, pGal4-hPPARα, pGal4-hPPARγ, pGal4-hPPARδ and pGal4-φ have been described by Raspe, Madsen et al. (1999). The pGal4-mPPARα, pGal4-hPPARγ and pGal4-hPPARδ constructs were obtained by cloning into the pGal4-φ vector of PCR-amplified DNA fragments corresponding to the DEF domains of the human PPARα, PPARγ and PPARδ nuclear receptors.
(§5) RK13 cells were seeded in 24-well culture dishes at 5×10^4 cells/well, COS-7 cells in 96-well culture dishes at 5×10^4 cells/well and transfected for 2 hours with the reporter plasmid pG5TkpGL3 (50 ng/well), the expression vectors pGal4-φ, pGal4-mPPARα, pGal4-hPPARα, pGal4-hPPARγ, pGal4-hPPARδ (100 ng/well) and the transfection efficiency control vector pRL-CMV (1 ng/well) according to the previously described protocol (Raspe, Madsen et al. 1999), then incubated for 36 hours with the test compounds. At the end of the experiment, the cells were lysed (Gibco, Paisley, UK) and luciferase activity was determined with a Dual-Luciferase™ Reporter Assay System kit (Promega, Madison, Wis., USA) for RK13 cells and Steady Glow Luciferase (Promega) for COS-7 cells according to the supplier's instructions as previously described. The protein content of the cell extracts was then measured with the Bio-Rad Protein Assay (Bio-Rad, Munich, Germany) as directed by the supplier.

For assay [2], the system named is LDL. Nature of the assay: Protection against LDL oxidation by copper (conjugated diene formation). Format: biochemical. Conditions: for rate of diene formation: FIG. 2b, copper alone 2.2; for kinetics of LDL oxidation (lag phase): FIG. 5a, no control value printed; for LDL oxidation rate: FIG. 5b, absence of compounds 2; for rate of LDL oxidation: FIG. 8b, absence of compounds 2.5. The protocol: Unless otherwise indicated, the reagents were from Sigma (St Quentin, France). LDL were prepared according to the method described by Lebeau et al. (Lebeau, Furman et al. 2000).
The solutions of test compounds were prepared at 10^−2 M concentration in bicarbonate buffer (pH 9) and diluted in PBS to obtain final concentrations ranging from 0.1 to 100 μM
Prior to oxidation, EDTA was removed from the LDL preparation by dialysis. Oxidation then took place at 30° C. by adding 100 μl of 16.6 μM CuSO4 solution to 160 μL of LDL (125 μg protein/ml) and 20 μl of a test compound solution. The formation of dienes, the species under observation, was followed by measuring optical density at 232 nm in the samples treated with the compounds in the presence or absence of copper. Optical density at 232 nm was measured every 10 minutes for 8 hours in a thermostated spectrophotometer (Tecan Ultra 380). The analyses were performed in triplicate. The compounds were considered to have antioxidant activity when they induced a longer lag phase and reduced the rate of oxidation and the amount of dienes formed in comparison with the control sample.

In assay [3] the target is T2, PPARγ (Homo sapiens, UniProt P37231).
T2 construct: expressed in transfected cells; host or cells: COS-7 cells
T2 sequence (P37231 238-503 limits assumed): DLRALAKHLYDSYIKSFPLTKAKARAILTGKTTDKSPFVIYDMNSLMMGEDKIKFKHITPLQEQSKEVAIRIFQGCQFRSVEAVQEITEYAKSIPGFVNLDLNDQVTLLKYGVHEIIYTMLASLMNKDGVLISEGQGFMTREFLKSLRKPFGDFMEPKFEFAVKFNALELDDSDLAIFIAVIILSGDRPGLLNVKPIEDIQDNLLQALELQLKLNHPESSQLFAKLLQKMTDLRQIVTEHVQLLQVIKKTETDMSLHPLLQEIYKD
The assay is described as follows: PPARγ/Gal4 transactivation system in COS-7 cells. The class given is cell-based. The following applies: 24 hours. As for the experimental part:
as §1, §2, §3, §4, §5

Setting [4] is: FIG. 2a, 10^−4M, copper alone 132 minutes.
The mark [5] stands for this setting: FIG. 2c, 10^−4M, copper alone 511.
The mark [6] stands for this setting: FIG. 7a, 10^−4M, absence of compounds 67.3 minutes.
[7] abbreviates: FIG. 5c, 10^−4M, absence of compounds 386.
Where [8] appears, read: FIG. 8a, 10^−4M, absence of compounds 67.3 minutes.

In the case of `COc1ccc(C(=O)/C=C/c2cc(C)c(OC(C)(C)C(=O)O)c(C)c2)cc1C` [compound 37, 1-(4-Methoxy-3-methylphenyl)-3-(4-carboxydimethylmethyloxy-3,5-dimethylphenyl)prop-2-en-1-one], the Induction factor in assay [1] (0.01 μM) was found to be 1.54; in assay [1] (0.03 μM), 2.54; in assay [1] (0.1 μM), 7.89; in assay [1] (0.3 μM) it was 17.25; in assay [1] (1 μM), 19.77; in assay [1] (3 μM), 16.89. The lag phase in assay [2] (FIG. 6a, 10^−4M, absence of compound 56 minutes) was found to be 106 min. Also, the oxidation rate in assay [2] (FIG. 6b, 10^−4M, absence of compound 2) is 1.8 nmol/min/mg of LDL. In addition, the “total amount of dienes formed” value in assay [2] (FIG. 6c, 10^−4M, absence of compound 360.0) was 326.9 nmol/mg of LDL.

For the compound `COc1ccc(C(=O)/C=C/c2cc(C)c(OC(C)(C)C(=O)O)c(C)c2)cc1F` [compound 35, 1-(4-Methoxy-3-fluorophenyl)-3-(4-carboxydimethylmethyloxy-3,5-dimethylphenyl)prop-2-en-1-one], the Induction factor in assay [1] (0.003 μM) was determined as 1.41; in assay [1] (0.01 μM), 1.54; in assay [1] (0.03 μM), 2.53; in assay [1] (0.1 μM), 7.47; in assay [1] (0.3 μM), 15.51; in assay [1] (1 μM) it was 24.33. The Induction factor in assay [1] (3 μM) is listed as 23.70; in assay [1] (10 μM), 21.03.

Consider `CSc1ccc(C(=O)/C=C/c2cc(Br)c(OC(C)(C)C(=O)O)c(Br)c2)cc1` [compound 8, 1-(4-Methylthiophenyl)-3-(4-carboxydimethylmethyloxy-3,5-dibromophenyl)prop-2-ene-1-one], for which the Induction factor in assay [3] (1 μM) was determined as 2.13; in assay [3] (10 μM), 2.74; in assay [1] (1 μM), 15.67; in assay [1] (10 μM), 12.66. The lag phase in assay [2] (setting [4]) was found to be 169 min. Further, the “rate of diene formation” value in assay [2] (10^−4M) worked out at 1.7 nmol/min/mg. The “total amount of dienes formed” value in assay [2] (setting [5]) came to 474 nmol/mg.

Regarding `Cc1cc(/C=C/C(=O)c2ccc(OCCCCCC3CCSS3)cc2)cc(C)c1OC(C)(C)C(=O)O` (racemic) [compound 6, 1-(4-((R,S)-5-[1,2]dithiolan-3-ylpentyloxy)phenyl)-3-(4-carboxydimethylmethyloxy-3,5-dimethylphenyl)prop-2-en-1-one], the Induction factor in assay [3] (1 μM) was 4.12; in assay [3] (10 μM), 6.83; in assay [1] (1 μM), 5.48; in assay [1] (10 μM), 7.01. The compound further gave a lag phase in assay [2] (setting [4]) of 205 min. Moreover, the “rate of diene formation” value in assay [2] (10^−4M) came to 1.7 nmol/min/mg. For the same compound, the “total amount of dienes formed” value in assay [2] (setting [5]) turned out to be 443 nmol/mg.

Regarding `COc1ccc(OC)c(C(=O)/C=C/c2cc(C)c(OC(C)(C)C(=O)O)c(C)c2)c1` [compound 41, 1-(2,5-Dimethoxyphenyl)-3-(4-carboxydimethylmethyloxy-3,5-dimethylphenyl)prop-2-en-1-one], in assay [2] (setting [6]), the lag phase amounted to 100 min. The “total amount of dienes formed” value in assay [2] (FIG. 7c, 10^−4M, absence of compounds 432.5) is reported as 403 nmol/mg of LDL.

On to `COc1ccc(C(=O)/C=C/c2cc(C)c(OC(C)(C)C(=O)O)c(C)c2)cc1C(F)(F)F` [compound 47, 1-(4-Methoxy-3-trifluoromethylphenyl)-3-(4-carboxydimethylmethyloxy-3,5-dimethylphenyl)prop-2-en-1-one], for which the lag phase in assay [2] (setting [6]) was found to be 126.5 min.

With `Cc1cc(C)c(C(=O)/C=C/c2cc(C)c(OC(C)(C)C(=O)O)c(C)c2)cc1C` [compound 25, 1-(2,4,5-Trimethylphenyl)-3-(4-carboxydimethylmethyloxy-3,5-dimethylphenyl)prop-2-en-1-one], in assay [2] (10^−4M), the “kinetics of LDL oxidation (lag phase)” value was found to be 87.6 min and the LDL oxidation rate is on record as 1.6 nmol/min/mg. The “total amount of dienes formed” value in assay [2] (setting [7]) worked out at 365 nmol/mg.

In assay [2] (setting [8]), `Cc1cc(C(=O)/C=C/c2cc(C)c(OC(C)(C)C(=O)O)c(C)c2)cc(C)c1OCCN1CCOCC1` [compound 43, 1-(3,5-Dimethyl-4-(morpholin-4-ylethyloxy)phenyl)-3-(4-carboxydimethylmethyloxy-3,5-dimethylphenyl)prop-2-en-1-one] returned a lag phase of 97 min. In addition, the “rate of LDL oxidation” value in assay [2] (10^−4M) amounted to 2.2 nmol/min/mg.

`COc1c(C)cc(C(=O)/C=C/c2cc(C)c(OC(C)(C)C(=O)O)c(C)c2)cc1C` [compound 17, 1-(4-Methoxy-3,5-dimethylphenyl)-3-(4-carboxydimethylmethyloxy-3,5-dimethylphenyl)prop-2-en-1-one]: in assay [2] (setting [8]), the lag phase stood at 148 min. Moreover, the “rate of LDL oxidation” value in assay [2] (10^−4M) is recorded as 1.8 nmol/min/mg.

For the compound `Cc1cc(/C=C/C(=O)c2ccc(OCCC3CCCCC3)cc2)cc(C)c1OC(C)(C)C(=O)O` [compound 11, 1-(4-Cyclohexylethyloxyphenyl)-3-(4-carboxydimethylmethyloxy-3,5-dimethylphenyl)prop-2-en-1-one], in assay [2] (FIG. 3a, 3.3×10^−5M, absence of compound 87.2 minutes), the “lag phase (maximum)” value was determined as 210 min. In assay [2] (FIG. 3a, 10^−6 M, absence of compound 87.2 minutes), this compound showed a lag phase of 101.5 min.

Compound `CCCCCCOc1c(C)cc(C(=O)/C=C/c2cc(C)c(OC(C)(C)C(=O)O)c(C)c2)cc1C` [compound 19, 1-(4-Hexyloxy-3,5-dimethylphenyl)-3-(4-carboxydimethylmethyloxy-3,5-dimethylphenyl)prop-2-en-1-one] yielded a lag phase in assay [2] (FIG. 4a, 10^−4M, copper alone 61 minutes) of 92.5 min. For the same compound, the diene formation rate in assay [2] (FIG. 4b, 10^−4M, absence of compounds 1.9) is 1.6 nmol/min/mg of LDL. Moreover, the “total amount of dienes formed” value in assay [2] (FIG. 4c, 10^−4M, absence of compound 370.9) is 346.6 nmol/mg of LDL.

For `Cc1cc(C(=O)/C=C/c2cc(C)c(OC(C)(C)C(=O)O)c(C)c2)cc(C)c1OCCSC1CCCCC1` [compound 27, 1-(4-Cyclohexylthioethyloxy-3,5-dimethylphenyl)-3-(4-carboxydimethylmethyloxy-3,5-dimethylphenyl)prop-2-en-1-one], in assay [2] (10^−4M), the “kinetics of LDL oxidation (lag phase)” value amounted to 170.8 min and the LDL oxidation rate worked out at 0.8 nmol/min/mg. The “total amount of dienes formed” value in assay [2] (setting [7]) is on record as 374 nmol/mg.

The values above are taken from patent publication US7547729B2, “1,3-diphenylprop-2-en-1-one derivative compounds, preparation method thereof and uses of same” (Genfit, priority 2004, dated 2009).
